Results as given in patent US20240287063A1, “METHIONINE ADENOSYLTRANSFERASE 2A INHIBITOR” (NANJING CHIA TAI TIANQING PHARMACEUTICAL CO., LTD., priority 2021, published 2024).

What was measured:
MAT2A enzyme = biological target: T1, MAT2A enzyme (Homo sapiens, UniProt P31153); experiment: Enzymatic testing method for MAT2A (Biomol Green, OD620); type: biochemical; conditions: score by IC50 for inhibiting MAT2A; read-out: MAT2A inhibition score
T1 construct: purchased BPS 71401
Description: • a) A 5×MAT2A test buffer (250 mM Tris-HCl, pH 8.0; 250 mM KCl; 75 mM MgCl2; 0.025% BSA; 0.05% Brij35; 1.5 mM EDTA) was first prepared and partially diluted to 1× for later use; • b) Preparation and addition of MAT2A enzyme (BPS, 71401): the MAT2A enzyme was prepared into 3.674 ng/L by using the 1×MAT2A test buffer (1.67×, final concentration 2.20 ng/L), a BioTek (MultiFlo FX) automatic liquid separator was used, 15 μL of 1.67×MAT2A enzyme solution was added to compound test wells and negative control wells respectively, and 15 μL of 1×MAT2A test buffer was added to blank control wells; • c) Preparation and addition of a compound: a compound to be tested was diluted with DMSO from 10 mM stock solution to 100 μM, a positive drug AGI-24512 was diluted under the same conditions, and the diluted compound and positive drug were automatically sprayed into each well by using a Tecan compound titrator (D300e) according to preset concentration gradients, where the spray volume was little and negligible. The concentration gradient was initially 1 μM, the dilution was implemented by ½ log, and a total of 8 gradients were set. Centrifugation at 2500 rpm for 30 s and incubation at 25° C. for 30 min were performed; • d) Preparation of ATP: 10 mM ATP (Sigma, A7699) was diluted with 1×MAT2A test buffer to 700 μM for later use; • e) Preparation and addition of a substrate and ATP mixture: 5×MAT2A test buffer, 3 μL/well; 750 μM L-methionine (Adamas, 01100469), 2.5 μL/well; 700 μM ATP, 2.5 μL/well; and double distilled water, 2 μL/well. A total amount of required mixture was prepared according to the number of test wells, and 10 μL of the mixture was added to each well by using the BioTek (MultiFlo FX) automatic liquid separator, followed by centrifugation at 2500 rpm for 30 s and reaction at 25° C. for 150 min; • f) Addition of Biomol Green detection reagent: 50 μL of Biomol Green (Enzo, BML-AK111) was added to each well by using the BioTek (MultiFlo FX) automatic liquid separator, followed by centrifugation at 2500 rpm for 30 s and incubation at 25° C. for 20 minutes; • g) After the reaction, OD620 values were read by using a Perkin Elmer (Envision 2105) multifunctional plate reader.
A formula for calculating an inhibition rate was as follows: […]
Wherein, • % Inhibition: inhibition rate % • ODsample: OD620 value in a sample well; • ODmin: representing a mean OD620 value of blank control wells without the enzyme or compound to be tested; • ODmax: representing a mean OD620 value of negative control wells with the enzyme and without the compound.
Then a dose-effect curve log(inhibitor) vs. response-Variable slope was fitted by usingGraphPad Prism 5 software to obtain an IC50 value of compound for MAT2A enzyme inhibition.

[1] = system: HCT116 MTAP−/− subcutaneous xenograft tumors; experiment: In vivo effect experiment of HCT116 MTAP−/− subcutaneous xenograft tumors in nude mice; conditions: 50 mg/kg daily intragastric
Description: Female Nu/Nu nude mice (6-8 weeks old, Beijing Vital River Laboratory Animal Technology Co., Ltd.) were raised in an SPF animal room at a temperature of 20° C.-25° C., relative humidity of 40%-70%, and light and dark lighting for 12 hours each; and animals can freely drink and eat. The animals were adaptively fed before experiment.
HCT116 MTAP^−/− cells (Horizon) were cultured in vitro for proliferation, cells in logarithmic growth phase were collected and resuspended in a serum-free RPMI-1640 medium, and the cell concentration was adjusted to 6.0×10^7 cells/mL; and 100 μL of the cell suspension was injected subcutaneously into the right anterior armpit of each nude mouse by using a 1 mL syringe, the status of the animals was observed regularly, and the growth of transplanted tumors was monitored regularly.
When the tumor volume reached 100-300 mm^3, animals with too large or too small tumor volume or uncertain tumor formation were eliminated, and tumor bearing mice with good health and similar tumor volume were selected and randomly grouped, 6 mice in each group; the administration group received daily intragastric administration (AG-270: 50 mg/kg, with a structure shown below; compound to be tested: 1-7.5 mg/kg); and the control group was intragastrically administrated with the same volume of blank solvent. In the administration period, the tumor diameter was measured twice a week, the tumor volume was calculated, the animals were weighed, and their weight was recorded.
A formula for calculating tumor volume (TV) is: Tv=½×a×b^2, wherein a represents long diameter of the tumor, and b represents short diameter of the tumor.
Experimental data is calculated and statistically processed by using Microsoft Office Excel 2007 software. Unless otherwise specified, the data were expressed as mean±standard error (Mean SEM), and t-test is used for comparison between two groups.
Growth curves of tumor volume in each group are shown in FIG. 1, results of SAM test in tumors of each group are shown in FIG. 2, and the mean tumor volume and SEM in each group are shown in Table 2 below: […]

T1 sequence (P31153 whole entry): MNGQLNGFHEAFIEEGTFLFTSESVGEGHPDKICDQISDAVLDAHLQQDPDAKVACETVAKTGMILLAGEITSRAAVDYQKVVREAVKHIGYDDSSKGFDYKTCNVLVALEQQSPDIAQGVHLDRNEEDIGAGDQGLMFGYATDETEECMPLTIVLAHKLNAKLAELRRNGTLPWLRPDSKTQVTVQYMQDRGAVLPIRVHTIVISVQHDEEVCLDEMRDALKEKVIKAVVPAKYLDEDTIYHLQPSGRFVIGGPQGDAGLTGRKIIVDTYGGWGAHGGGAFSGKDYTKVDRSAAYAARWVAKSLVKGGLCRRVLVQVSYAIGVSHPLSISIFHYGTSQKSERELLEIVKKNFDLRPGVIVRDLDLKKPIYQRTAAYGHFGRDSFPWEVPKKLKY

For `COc1ccc(-c2cn3ccc(C4CC4)nc3c(-c3ccc4c(c3)OC(F)(F)O4)c2=O)cc1OC` [Example 33, 2-cyclopropyl-9-(2,2-difluoro-1,3-benzodioxol-5-yl)-7-(3,4-dimethoxyphenyl)-8H-pyrido[1,2-a]pyrimidin-8-one], which IC50 (MAT2A enzyme) is on record?
The IC50 was over 1000 nM.

Which IC50 (MAT2A enzyme) does the source give for `O=c1c(-c2ccc3c(c2)OC(F)(F)O3)cn2ccc(C3CC3)nc2c1-c1ccc2c(c1)OC(F)(F)O2` [Example 30, 2-cyclopropyl-7,9-bis(2,2-difluoro-1,3-benzodioxol-5-yl)-8H-pyrido[1,2-a]pyrimidin-8-one] here?
The IC50 was over 1000 nM.

For `O=C1NC2(CC2)Cn2nc3ccc(-c4cn5ccc(C6CC6)nc5c(-c5ccc(OC(F)F)cc5)c4=O)cc3c21` [Example 35, 9′-(2-cyclopropyl-9-(4-(difluoromethoxy)phenyl)-8-oxo-8H-pyrido[1,2-a]pyrimidin-7-yl)-4′H-spiro[cyclopropane-1,3′-pyrazino[1,2-b]indazol]-1′(2′H)-one], which IC50 (MAT2A enzyme) is on record?
Its IC50 is under 50 nM.

Which IC50 (MAT2A enzyme) does the source give for `COc1cc(-c2cn3ccc(C4CC4)nc3c(-c3ccc4c(c3)OC(F)(F)O4)c2=O)ccc1OC(F)F` [Example 34, 2-cyclopropyl-9-(2,2-difluoro-1,3-benzodioxol-5-yl)-7-[4-(difluoromethoxy)-3-methoxyphenyl]-8H-pyrido[1,2-a]pyrimidin-8-one] here?
The IC50 was over 1000 nM.

With `Cn1cc2cc(-c3cn4ccc(C5CC5)nc4c(-c4ccc5nn(C)cc5c4)c3=O)ccc2n1` [Example 29, 2-cyclopropyl-7,9-bis(2-methyl-2H-indazol-5-yl)-8H-pyrido[1,2-a]pyrimidin-8-one] as the compound, how does the IC50 (MAT2A enzyme) read?
Its IC50 is over 1000 nM.

How did the IC50 (MAT2A enzyme) turn out when `O=C1NC2(CC2)Cn2nc3ccc(-c4cn5ccc(NCC(F)(F)F)nc5c(-c5ccc(OC(F)F)cc5)c4=O)cc3c21` [Example 14, 9′-{9-[4-(difluoromethoxy)phenyl]-8-oxo-2-[(2,2,2-trifluoroethyl)amino]pyrido[1,2-a]pyrimidin-7-yl}-2′,4′-dihydrospiro[cyclopropane-1,3′-pyrazino[1,2-b]indazol]-1′-one] was run?
The IC50 was under 50 nM.

For `O=c1c(-c2ccc(OC(F)F)cc2)cn2c(C3CC3)ccnc2c1-c1ccc(OC(F)F)cc1` [Example 40, 4-cyclopropyl-7,9-bis[4-(difluoromethoxy)phenyl]-8H-pyrido[1,2-a]pyrimidin-8-one], which IC50 (MAT2A enzyme) is on record?
Its IC50 is over 1000 nM.

For `O=c1c(-c2ccc(OC(F)F)cc2)cn2ccc(Cl)cc2c1-c1ccc(OC(F)F)cc1` [Example 2, 8-chloro-1,3-bis(4-(difluoromethoxy)phenyl)-2H-quinolizin-2-one], which IC50 (MAT2A enzyme) is on record?
Its IC50 is under 50 nM.

Which IC50 (MAT2A enzyme) does the source give for `COc1cc(-c2cn3ccc(C4CC4)nc3c(-c3ccc(OC(F)F)c(OC)c3)c2=O)ccc1OC(F)F` [Example 37, 2-cyclopropyl-7,9-bis(4-(difluoromethoxy)-3-methoxyphenyl)-8H-pyrido[1,2-a]pyrimidin-8-one] here?
The IC50 was 50 to 200 nM.

`O=c1c(-c2ccc(OC(F)F)cc2)cn2ccc(-c3ccc(OC(F)F)cc3)cc2c1-c1ccc(OC(F)F)cc1` [Example 1, 1,3,8-tris(4-(difluoromethoxy)phenyl)-2H-quinolizin-2-one] was tested. Which IC50 (MAT2A enzyme) did it give?
The IC50 was 50 to 200 nM.

Which “Tumor volume, mean volume” value ([1]; day 1 of administration) does the source give for `COc1ccc(-c2c(Nc3ccccn3)[nH]c3c(C4=CCCCC4)c(-c4ccccc4)nn3c2=O)cc1` [AG-270, reference compound] here?
The value was 154 mm^3.

What about the “Tumor volume, mean volume” value ([1]; day 4 of administration) of the same compound?
The value was 189 mm^3.

And the “Tumor volume, mean volume” value ([1]; day 6 of administration)?
Its value is 219 mm^3.

And the “Tumor volume, mean volume” value ([1]; day 8 of administration)?
The value was 244 mm^3.

And the “Tumor volume, mean volume” value ([1]; day 11 of administration)?
The value was 303 mm^3.

And the “Tumor volume, mean volume” value ([1]; day 13 of administration)?
The value was 369 mm^3.

What about the “Tumor volume, mean volume” value ([1]; day 15 of administration) of the same compound?
Its value is 419 mm^3.

`Nc1nc2ccc(-c3cn4ccc(NCC(F)(F)F)nc4c(-c4ccc(OC(F)F)cc4)c3=O)cc2s1` [Example 18] was tested. Which IC50 (MAT2A enzyme) did it give?
The IC50 was under 50 nM.

With `Cn1nccc1-c1c2cc(-c3cn4ccc(C5CC5)cc4c(-c4ccc5nn(C)c(-c6ccnn6C)c5c4)c3=O)ccc2nn1C` [Example 8, 8-cyclopropyl-1,3-bis[2-methyl-3-(2-methylpyrazol-3-yl)indazol-5-yl]quinolizin-2-one] as the compound, how does the IC50 (MAT2A enzyme) read?
The IC50 was over 1000 nM.

With `COc1ccc(-c2cn3ccc(C4CC4)nc3c(-c3ccc(OC)c(OC)c3)c2=O)cc1OC` [Example 31, 2-cyclopropyl-7,9-bis(3,4-dimethoxyphenyl)-8H-pyrido[1,2-a]pyrimidin-8-one] as the compound, how does the IC50 (MAT2A enzyme) read?
The IC50 was over 1000 nM.

For `O=c1ccn2cc(-c3ccc(OC(F)F)cc3)c(=O)c(-c3ccc(OC(F)F)cc3)c2[nH]1` [Example 21, 7,9-bis[4-(difluoromethoxy)phenyl]-1H-pyrido[1,2-a]pyrimidin-2,8-dione], which IC50 (MAT2A enzyme) is on record?
Its IC50 is over 1000 nM.

For `Cn1nc2ccc(-c3cn4ccc(C5CC5)cc4c(-c4ccc5nn(C)c(N)c5c4)c3=O)cc2c1N` [Example 5, 1,3-bis(3-amino-2-methyl-2H-indazol-5-yl)-8-cyclopropylquinolizin-2-one], which IC50 (MAT2A enzyme) is on record?
The IC50 was over 1000 nM.

Which IC50 (MAT2A enzyme) does the source give for `N#CCn1cc2cc(-c3cn4ccc(NCC(F)(F)F)nc4c(-c4ccc(OC(F)F)cc4)c3=O)ccc2n1` [Example 19, 2-(5-{9-[4-(difluoromethoxy)phenyl]-8-oxo-2-[(2,2,2-trifluoroethyl)amino]pyrido[1,2-a]pyrimidin-7-yl}indazol-2-yl)acetonitrile] here?
The IC50 was under 50 nM.
